Source: PubChem BioAssay AID1884 (NMMLSC, 2009)
Calls of active or inactive are those of the source. No rule for the calls is given here.

Target: Regulator of G-protein signaling 19 (Homo sapiens) (UniProt P49795)
Experiment: RGS19-Gαo interaction regulators, potency – biochemical, multiplexed bead flow cytometry, dose response (AID 1884)
Details: bead-based flow cytometry RGS19-Galphao binding

Sequence of Regulator of G-protein signaling 19 (Homo sapiens) (P49795 whole entry, looked up): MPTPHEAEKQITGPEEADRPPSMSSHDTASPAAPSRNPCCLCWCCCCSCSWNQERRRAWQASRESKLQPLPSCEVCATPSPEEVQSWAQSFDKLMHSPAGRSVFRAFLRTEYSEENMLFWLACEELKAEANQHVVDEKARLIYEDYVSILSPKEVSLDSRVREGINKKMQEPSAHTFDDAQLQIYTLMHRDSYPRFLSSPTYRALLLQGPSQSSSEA

In the case of `O=C1CCCC2=C1C(c1cccs1)n1ncnc1N2` (configuration not stated), the EC50 is reported as > 30 µM (inactive).
In the case of `CCOC(=O)N=Nc1c(O)n(C)c2ccccc12`, the EC50 is reported as > 30 µM (inactive).
`COc1ccc(Br)cc1/C=N/Nc1cccc(C(=O)O)c1` was tested, and the EC50 was > 30 µM (inactive).
With `CC(C)Sc1nc2ccc(N3C(=O)C4CCCCC4C3=O)cc2s1` (configuration not stated) the EC50 was > 30 µM (inactive).
For `CCOC(=O)C1=C(C)NC(C)=C(C(=O)OCCNC(=O)c2cccnc2)C1c1cccc([N+](=O)[O-])c1` (configuration not stated), the EC50 was > 30 µM (inactive).
`CCOC(=O)/C(C(=O)Nc1ccccc1Cl)=C1/NC(C)(C)Cc2ccccc21` was tested, and the EC50 was > 30 µM (inactive).
In the case of `O=c1[nH]c(=S)n(Cc2ccco2)c(O)c1C=NCc1cccs1`, the EC50 is reported as > 30 µM (inactive).

Compared with `NS(=O)(=O)c1ccc(N/N=C/c2ccc(O)c(O)c2O)c([N+](=O)[O-])c1`, `CN(C)[C@@H]1C(=O)C(C(=O)NCN2CCCC2)=C(O)[C@@]2(O)C(=O)C3=C(O)c4c(O)cccc4[C@@](C)(O)C3CC12` (some centres not stated) is 11-fold higher in EC50: 0.68 µM for the first, 7.53 µM for the second.

Same assay, conditions: bead-based flow cytometry RGS19-Galphao binding; measured here: Ki for RGS19-Galphao

First: CN=c1scc(C)n1/N=C/c1ccc(O)c(O)c1O
Second: CCN=c1scc(C)n1/N=C/c1ccc(O)c(O)c1O
The Ki of the first is 1.6-fold lower: 2.64 µM for the first, 4.33 µM for the second.

Going from `O=C1CCC(=O)N(O)CCCCCNC(=O)CCC(=O)N(O)CCCCCNC(=O)CCC(=O)N(O)CCCCCN1` to `O=C1C(Cl)=C(N2CCCCC2)C(=O)C(Cl)=C1c1cnc(N2CCCCC2)s1`, the Ki falls from 1.93 µM to 0.63 µM (3.1-fold).

Compared with `O=c1c2ccccc2sn1-c1cc(S(=O)(=O)N2CCOCC2)ccc1N1CCCC1`, `O=c1c2ccccc2sn1-c1cc(S(=O)(=O)N2CCOCC2)ccc1N1CCOCC1` is 4-fold lower in Ki: 0.44 µM for the first, 0.11 µM for the second. The second binds more tightly here.

`CC(=O)OCCCNc1cc(Sc2nc3ccccc3s2)c2nonc2c1[N+](=O)[O-]` and `O=[N+]([O-])c1ccc(Sc2cccc[n+]2[O-])c2nonc12` are within 1.5-fold of each other in Ki: 0.92 µM for the first, 0.82 µM for the second.

Going from `CCC(=O)NC1=C(Cl)C(=O)C(NC(=O)CC)=C(Cl)C1=O` to `COC(=O)CCC(=O)Nc1sc(C)c(C)c1C(N)=O`, the Ki rises from 0.76 µM to 4.09 µM (5.4-fold).

Going from `CC(NC(=O)c1sc2cc([N+](=O)[O-])ccc2c1Cl)C(C)(C)C` (configuration not stated) to `O=C(NCCCN1CCOCC1)c1sc2cc([N+](=O)[O-])ccc2c1Cl`, the Ki rises from 0.96 µM to 2.05 µM (2.1-fold).

First: C/C(=N/NC(=O)c1cc(O)c(O)c(O)c1)c1ccc([N+](=O)[O-])cc1
Second: CCN(CC)S(=O)(=O)c1cccc(C(=O)N/N=C/c2ccc(O)c(O)c2O)c1
The Ki of the first is 9.2-fold higher: 18.7 µM for the first, 2.03 µM for the second.

Going from `Cc1ccc(NC(=O)Cn2sc3nc(C)cc(C)c3c2=O)c(Cl)c1` to `Cc1cc(C)c2c(=O)n(CC(=O)Nc3ccc(Cl)cc3)sc2n1`, the Ki rises from 0.47 µM to 1.45 µM (3.1-fold). The first binds more tightly here.

`CC(=O)N1CC[n+]2c(-c3ccc([N+](=O)[O-])cc3)csc21` and `COC(=O)c1c(-c2ccc(C(C)(C)C)cc2)csc1NC(=O)C1C2CCC(O2)C1C(=O)O` (configuration not stated) are within 1.5-fold of each other in Ki: 7.17 µM for the first, 7.55 µM for the second.

First: CCOc1ccccc1-c1c2cc(O)c(=O)cc-2oc2cc(O)c(O)cc12
Second: O=C(COc1ccccc1C(=O)N/N=C\c1ccc(O)c(O)c1)N/N=C/c1ccc(O)c(O)c1
The Ki of the first is 4.3-fold lower: 0.93 µM for the first, 3.98 µM for the second. The first binds more tightly here.

First: CCCCn1c(-c2csc(C(C)C)c2)n[nH]c1=S
Second: CCCNC(=O)Cn1sc2nc(C)cc(C)c2c1=O
The Ki of the first is 12-fold higher: 10.7 µM for the first, 0.93 µM for the second. The second binds more tightly here.

Compared with `Cc1cc(Cl)ccc1N=c1ssnc1Cl`, `Cc1ccccc1-n1sc2cc(F)ccc2c1=O` is 9.6-fold lower in Ki: 4.13 µM for the first, 0.43 µM for the second. The second binds more tightly here.

First: COCCCNC(=O)c1ccc2c3c(onc13)-c1ccccc1C2=O
Second: COc1ccc(OC)c(CCNC(=O)Cn2sc3nc(C)cc(C)c3c2=O)c1
The Ki of the first is 3.2-fold higher: 3.63 µM for the first, 1.14 µM for the second. The second binds more tightly here.

Compared with `Cc1cccc(N2CCN(C(=O)Cn3sc4nc(C)cc(C)c4c3=O)CC2C)c1` (configuration not stated), `CCOC(=O)C1CCCN(C(=O)Cn2sc3nc(C)cc(C)c3c2=O)C1` (configuration not stated) is 1.7-fold higher in Ki: 1.27 µM for the first, 2.1 µM for the second. The first binds more tightly here.

Compared with `Cc1ccc(-n2sc3ccccc3c2=O)cc1S(=O)(=O)N1CCCCC1`, `O=c1c2ccccc2sn1-c1ccc(S(=O)(=O)N2CCCC2)cc1` is 1.7-fold higher in Ki: 0.57 µM for the first, 0.95 µM for the second. The first binds more tightly here.

First: COc1ccccc1-n1c(-c2cc(-c3ccco3)[nH]n2)n[nH]c1=S
Second: Cc1[nH]n(-c2ccccc2)c(=S)c1C=Nc1cccc([N+](=O)[O-])c1
The Ki of the first is 8.3-fold higher: 13.2 µM for the first, 1.59 µM for the second. The second binds more tightly here.

Compared with `CCN1/C(=C/C(C)=C/c2sc3ccccc3[n+]2CC)Sc2ccccc21`, `O=c1c2ccccc2sn1-c1ccccc1` is 19-fold lower in Ki: 5.74 µM for the first, 0.3 µM for the second. The second binds more tightly here.

`O=C(O)C[C@@H]1C(=O)O[C@@H]2C(COC(=O)c3cc(O)c(O)c(O)c3)O[C@@H](OC(=O)c3cc(O)c(O)c(O)c3)[C@@H](OC(=O)c3cc(O)c(O)c4c3[C@H]1[C@H](O)C(=O)O4)[C@H]2OC(=O)c1cc(O)c(O)c(O)c1` (some centres not stated) and `O=C(OCC1O[C@@H](OC(=O)c2cc(O)c(O)c(O)c2)[C@@H](OC(=O)c2cc(O)c(O)c(O)c2)[C@@H](OC(=O)c2cc(O)c(O)c(O)c2)[C@@H]1OC(=O)c1cc(O)c(O)c(O)c1)c1cc(O)c(O)c(O)c1` (some centres not stated) are within 1.5-fold of each other in Ki: 5.37 µM for the first, 4.12 µM for the second.

Going from `CN(C)c1ncc(C2=C(Cl)C(=O)C(N3CCCC3)=C(Cl)C2=O)s1` to `CN1CCN(C2=C(Cl)C(=O)C(c3cnc(N4CCCCC4)s3)=C(Cl)C2=O)CC1`, the Ki falls from 0.79 µM to 0.01 µM (79-fold). The second binds more tightly here.

First: CCc1c(C(=O)Nc2ccccc2)c(C)[nH]c(=S)c1C#N
Second: CCOC(=O)c1sc(NC(=O)CSc2nnc(Cc3ccccc3)o2)c(C#N)c1C
The Ki of the first is 7.9-fold higher: 10.5 µM for the first, 1.33 µM for the second.

Going from `NS(=O)(=O)c1ccc(CNC(=O)/C=C/c2ccco2)cc1` to `CC1(C)OC(=O)C(=Cc2ccc(-c3ccc(S(N)(=O)=O)cc3)o2)C(=O)O1`, the Ki falls from 10.7 µM to 2.87 µM (3.7-fold).

First: NS(=O)(=O)c1ccc(N/N=C/c2ccc(O)c(O)c2O)c([N+](=O)[O-])c1
Second: O=C(Cc1csc(N2CCOCC2)n1)N/N=C/c1ccc(O)c(O)c1O
The Ki of the first is 7.3-fold lower: 0.63 µM for the first, 4.6 µM for the second. The first binds more tightly here.

First: CN(C)[C@@H]1C(=O)C(C(=O)NCN2CCCC2)=C(O)[C@@]2(O)C(=O)C3=C(O)c4c(O)cccc4[C@@](C)(O)C3CC12 (some centres not stated)
Second: O=C(O[C@@H]1OC2COC(=O)c3cc(O)c(O)c(O)c3-c3c(cc(O)c(O)c3O)C(=O)O[C@@H]([C@H]1O)[C@@H]2O)c1cc(O)c(O)c(O)c1
The Ki of the first is 2.4-fold higher: 7.07 µM for the first, 2.98 µM for the second.

Compared with `Cc1[nH]n(-c2ccccc2)c(=S)c1C=NCCCN=Cc1c(C)[nH]n(-c2ccccc2)c1=S`, `CCN(CC)S(=O)(=O)c1cccc(-c2n[nH]c(=S)n2/N=C/c2ccc(C(=O)OC)cc2)c1` is 2.2-fold higher in Ki: 2.63 µM for the first, 5.82 µM for the second.

Compared with `COc1ccc(C2=CC(=O)C=CC2=O)cc1`, `CN(C)S(=O)(=O)c1cccc(-n2sc3ccccc3c2=O)c1` is 12-fold lower in Ki: 1.84 µM for the first, 0.15 µM for the second.

First: CC(=O)N(O)CCCCCNC(=O)CCC(=O)N(O)CCCCCNC(=O)CCC(=O)N(O)CCCCCN
Second: CCC(=O)NC(c1ccc(C)cc1)c1cc([N+](=O)[O-])c2cccnc2c1O (configuration not stated)
The Ki of the first is 1.9-fold higher: 3.84 µM for the first, 2.07 µM for the second.

`Cc1cc(C)c2c(=O)n(CC(=O)Nc3cccc(F)c3)sc2n1` was tested, and the Ki was 1.16 µM.
